Reference: patent US9212163B2, “Pesticidal compositions and processes related thereto” (Dow AgroSciences LLC, priority 2012, dated 2015)

Tests used:
Format in all cases: in vivo
[1] = tested on: Cabbage Looper (CL) (Trichoplusia ni); assay: Bioassay on Cabbage Looper (CL), 128-well diet tray assay; conditions: read-out: CL Rating; for pest or weed control at 50 µg/cm2, 50 µg/cm2: 168 h, % mortality, second instar larvae, 50 μg/cm^2 on artificial diet, 25° C., five to seven days, average of eight wells; for pest or weed control at 50 µg/cm2: Table 5: Prophetic Compounds Subsequently Exemplified
Protocol: Certain molecules disclosed in this document were tested against BAW, CEW and CL using procedures described in the following examples. In the reporting of the results, the “BAW & CEW & CL Rating Table” was used (See Table Section).
Bioassays on CL (Trichoplusia ni)
Bioassays on CL were conducted using a 128-well diet tray assay. One to five second instar CL larvae were placed in each well (3 mL) of the diet tray that had been previously filled with 1 mL of artificial diet to which 50 μg/cm^2 of the test compound (dissolved in 50 μL of 90:10 acetone-water mixture) had been applied (to each of eight wells) and then allowed to dry. Trays were covered with a clear self-adhesive cover, and held at 25° C., 14:10 light-dark for five to seven days. Percent mortality was recorded for the larvae in each well; activity in the eight wells was then averaged. The results are indicated in the table entitled “Table 4: Assay Results Part 2” (See Table Section).

[2] = tested on: Beet Armyworm (BAW) (Spodoptera exigua); assay: Bioassay on Beet Armyworm (BAW), 128-well diet tray assay; conditions: Spodoptera exigua, read-out: BAW Rating; for pest or weed control at 50 µg/cm2, 50 µg/cm2: 168 h, % mortality, second instar larvae, 50 μg/cm^2 on artificial diet, 25° C., five to seven days, average of eight wells; for pest or weed control at 50 µg/cm2: Table 5: Prophetic Compounds Subsequently Exemplified
Summary of the method: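 Artificial diet treated with 50 μg/cm^2 compound in 90:10 acetone-water was dried, then one to five second-instar larvae were placed per well, eight wells per compound. Trays were held at 25° C., 14:10 light-dark for five to seven days, and percent mortality averaged across wells.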

[3] = tested on: Green Peach Aphid (GPA) (Myzus persicae); assay: Bioassay on Green Peach Aphid (GPA), foliar spray on cabbage seedlings; conditions: 72 h, Table 5: Prophetic Compounds Subsequently Exemplified, read-out: GPA Rating
Protocol: Certain molecules disclosed in this document were tested against GPA using procedures described in the following example. In the reporting of the results, the “GPA Rating Table” was used (See Table Section).
Cabbage seedlings grown in 3-inch pots, with 2-3 small (3-5 cm) true leaves, were used as test substrate. The seedlings were infested with 20-50 GPA (wingless adult and nymph stages) one day prior to chemical application. Four pots with individual seedlings were used for each treatment. Test compounds (2 mg) were dissolved in 2 mL of acetone/methanol (1:1) solvent, forming stock solutions of 1000 ppm test compound. The stock solutions were diluted 5× with 0.025% Tween 20 in H2O to obtain the solution at 200 ppm test compound. A hand-held aspirator-type sprayer was used for spraying a solution to both sides of […] leaves until runoff. Reference plants (solvent check) were sprayed with the diluent only containing 20% by volume of acetone/methanol (1:1) solvent. Treated plants were held in a holding room for three days at approximately 25° C. and ambient relative humidity (RH) prior to grading. Evaluation was conducted by counting the number of live aphids per plant under a microscope. Percent Control was measured by using Abbott's correction formula (W. S. Abbott, “A Method of Computing the Effectiveness of an Insecticide” J. Econ. Entomol. 18 (1925), pp. 265-267) as follows. Corrected % Control=100*(X−Y)/X • where • X=No. of live aphids on solvent check plants and • Y=No. of live aphids on treated plants
The results are indicated in the tables entitled “Table 3: Assay Results” and “Table 4: Assay Results Part 2” (See Table Section).

| Compound | pest or weed control at 50 µg/cm2, 50 µg/cm2 [1] | pest or weed control at 50 µg/cm2, 50 µg/cm2 [2] | pest or weed control at 50 µg/cm2 [1] | pest or weed control at 50 µg/cm2 [2] | pest or weed control at 200 µg/mL [3] |
| --- | --- | --- | --- | --- | --- |
| O=C(NC1(C(=O)NCC(F)(F)F)CC1)c1ccc(/C=C/[C@@H](c2cc(Cl)c(Cl)c(Cl)c2)C(F)(F)F)cc1C(F)(F)F (single isomer, unassigned) [Compound F8B] | 50 to 100% | 50 to 100% |  |  |  |
| O=C(NC1(C(=O)NCC(F)F)CC1)c1ccc(/C=C/C(c2cc(Br)cc(Br)c2)C(F)(F)F)cc1C(F)(F)F (centres unmarked) [Compound P1195] |  |  | 50 to 100% | 50 to 100% |  |
| O=C(NC1(C(=S)NCC(F)(F)F)CC1)c1ccc(/C=C/C(c2cc(Cl)c(Cl)c(Cl)c2)C(F)(F)F)cc1Br (centres unmarked) [Compound P1009] |  |  | 50 to 100% | 50 to 100% |  |
| Cc1cc(C(/C=C/c2ccc(C(=O)NC3(C(=O)NCC(F)(F)F)CC3)c(C(F)(F)F)c2)C(F)(F)F)ccc1F (centres unmarked) [Compound P336] |  |  | 50 to 100% | 50 to 100% |  |
| O=C(NC1(C(=O)NCC(F)(F)F)CC1)c1ccc(/C=C/C(c2cccc(OC(F)(F)F)c2)C(F)(F)F)cc1Br (centres unmarked) [Compound P153] |  |  | 50 to 100% | 50 to 100% |  |
| O=C(NC1(C(=O)NCC(F)(F)F)CC1)c1ccc(/C=C/C(c2cc(Br)cc(Br)c2)C(F)(F)F)cc1C(F)(F)F (centres unmarked) [Compound P1198] |  |  | 50 to 100% | 50 to 100% |  |
| O=C(NC1(C(=O)NCC(F)(F)F)CC1)c1ccc(/C=C/C(c2cc(Cl)cc(Cl)c2)C(F)(F)C(F)(F)F)cc1Br (centres unmarked) [Compound P1043] |  |  | 50 to 100% | 50 to 100% |  |
| O=C(NC1(C(=O)NCC(F)(F)F)CC1)c1ccc(/C=C/C(c2ccc(Cl)c([N+](=O)[O-])c2)C(F)(F)F)cc1Br (centres unmarked) [Compound P468] |  |  | 50 to 100% | 50 to 100% |  |
| O=C(NC1(C(=O)NCC(F)(F)F)CC1)c1ccc(/C=C/C(c2cc(Br)cc(Br)c2)C(F)(F)F)cc1Br (centres unmarked) [Compound P1183] |  |  | 50 to 100% | 50 to 100% |  |
| O=C(NC1(C(=O)NCCC(F)(F)F)CC1)c1ccc(/C=C/C(c2cc(Br)cc(Br)c2)C(F)(F)F)cc1Br (centres unmarked) [Compound P1213] |  |  | 50 to 100% | 50 to 100% |  |
| O=C(NC1(C(=O)NCC(F)(F)F)CC1)c1ccc(/C=C/C(c2cc(F)cc(Br)c2)C(F)(F)F)cc1Br (centres unmarked) [Compound P198] |  |  | 50 to 100% | 50 to 100% |  |
| O=C(NC1(C(=O)NCCC(F)(F)F)CC1)c1ccc(/C=C/C(c2cc(Cl)c(Cl)c(Cl)c2)C(F)(F)F)cc1Br (centres unmarked) [Compound P1033] |  |  | 50 to 100% | 50 to 100% |  |
| O=C(NC1(C(=O)NCC(F)(F)F)CC1)c1ccc(/C=C/C(c2ccc(F)c(F)c2F)C(F)(F)F)cc1C(F)(F)F (centres unmarked) [Compound P65] |  |  | 50 to 100% | 50 to 100% |  |
| O=C(NC1(C(=O)NCCC(F)(F)F)CC1)c1ccc(/C=C/C(c2cc(Cl)c(Cl)c(Cl)c2)C(F)(F)F)cc1C(F)(F)F (centres unmarked) [Compound P1035] |  |  | 50 to 100% | 50 to 100% |  |
| O=C(NC1(C(=O)NCC(F)(F)F)CC1)c1ccc(/C=C/[C@H](c2cc(Cl)c(Cl)c(Cl)c2)C(F)(F)F)cc1C(F)(F)F (single isomer, unassigned) [Compound F8A] | 50 to 100% | 50 to 100% |  |  |  |
| O=C(NC1(C(=O)NCC(F)(F)F)CC1)c1ccc(/C=C/C(c2cc(F)cc(Br)c2)C(F)(F)F)cc1C(F)(F)F (centres unmarked) [Compound P200] |  |  | 50 to 100% | 50 to 100% |  |
| O=C(NC1(C(=O)NCC(F)(F)F)CC1)c1ccc(/C=C/C(c2cc(Cl)cc(Br)c2)C(F)(F)F)cc1C(F)(F)F (centres unmarked) [Compound P380] |  |  | 50 to 100% | 50 to 100% |  |
| CCNC(=O)C1(NC(=O)c2ccc(/C=C/C(c3cc(Cl)c(Cl)c(Cl)c3)C(F)(F)F)cc2Br)CC1 (centres unmarked) [Compound P1023] |  |  | 50 to 100% | 50 to 100% |  |

| Compound | pest or weed control at 50 µg/cm2, 50 µg/cm2 [1] | pest or weed control at 50 µg/cm2, 50 µg/cm2 [2] | pest or weed control at 50 µg/cm2 [1] | pest or weed control at 50 µg/cm2 [2] | pest or weed control at 200 µg/mL [3] |
| --- | --- | --- | --- | --- | --- |
| O=C(NC1(C(=S)NCC(F)(F)F)CC1)c1ccc(/C=C/C(c2cc(Cl)c(Cl)c(Cl)c2)C(F)(F)F)cc1Cl (centres unmarked) [Compound P1010] |  |  | 50 to 100% | 50 to 100% |  |
| O=C(NC1(C(=O)NCC(F)(F)F)CC1)c1ccc(/C=C/C(c2ccc(Cl)c(Cl)c2)C(F)(F)F)cc1Br (centres unmarked) [Compound P1093] |  |  | 50 to 100% | 50 to 100% |  |
| O=C(NC1(C(=O)NCC(F)(F)F)CC1)c1ccc(/C=C/C(c2cc(Cl)cc(Cl)c2)C(F)(F)C(F)(F)F)cc1C(F)(F)F (centres unmarked) [Compound P1045] |  |  | 50 to 100% | 50 to 100% |  |
| O=C(NC1(C(=O)NCC(F)(F)F)CC1)c1ccc(/C=C/C(c2ccc(Cl)c([N+](=O)[O-])c2)C(F)(F)F)cc1C(F)(F)F (centres unmarked) [Compound P470] |  |  | 50 to 100% | 50 to 100% | 0 to 80% |
| O=C(NC1(C(=O)NCC(F)(F)F)CC1)c1ccc(/C=C/C(c2cc(Cl)cc(Br)c2)C(F)(F)F)cc1Br (centres unmarked) [Compound P378] |  |  | 50 to 100% | 50 to 100% |  |
| CCNC(=O)C1(NC(=O)c2ccc(/C=C/C(c3cc(Cl)c(Cl)c(Cl)c3)C(F)(F)F)cc2C(F)(F)F)CC1 (centres unmarked) [Compound P1025] |  |  | 50 to 100% | 50 to 100% | 0 to 80% |
| O=C(NC1(C(=O)NCC(F)(F)F)CCC1)c1ccc(/C=C/C(c2cc(Cl)c(Cl)c(Cl)c2)C(F)(F)F)cc1Cl (centres unmarked) [Compound F4] | 50 to 100% | 50 to 100% |  |  |  |
| Cc1cc(/C=C/C(c2cc(Cl)c(Cl)c(Cl)c2)C(F)(F)F)ccc1C(=O)NC1(C(=O)NCC(F)(F)F)CC1 (centres unmarked) [Compound F2] | 50 to 100% | 50 to 100% |  |  |  |
| O=C(NC1(C(=O)NCC(F)(F)F)CC1)c1ccc(/C=C/C(c2cccc(OC(F)(F)F)c2)C(F)(F)F)cc1C(F)(F)F (centres unmarked) [Compound P155] |  |  | 50 to 100% | 50 to 100% |  |
| O=C(NC1(C(=O)NCC(F)(F)F)CC1)c1ccc(/C=C/C(c2ccc(Br)c(Br)c2)C(F)(F)F)cc1Br (centres unmarked) [Compound P423] |  |  | 50 to 100% | 50 to 100% |  |
| Cc1cc(C(/C=C/c2ccc(C(=O)NC3(C(=O)NCC(F)(F)F)CC3)c(C(F)(F)F)c2)C(F)(F)F)ccc1Cl (centres unmarked) [Compound P245] |  |  | 50 to 100% | 50 to 100% |  |
| O=C(NC1(C(=O)NCC(F)(F)F)CC1)c1ccc(/C=C/C(c2cc(Cl)c(Cl)cc2Cl)C(F)(F)F)cc1Br (centres unmarked) [Compound P108] |  |  | 50 to 100% | 50 to 100% |  |
| N#Cc1cc(C(/C=C/c2ccc(C(=O)NC3(C(=O)NCC(F)(F)F)CC3)c(C(F)(F)F)c2)C(F)(F)F)ccc1F (centres unmarked) [Compound P515] |  |  | 50 to 100% | 50 to 100% |  |
| O=C(NC1(C(=O)NCC(F)(F)F)CC1)c1ccc(/C=C/C(c2ccc(Cl)c(Cl)c2)C(F)(F)F)cc1C(F)(F)F (centres unmarked) [Compound P1095] |  |  | 50 to 100% | 50 to 100% |  |
| Cc1cc(C(/C=C/c2ccc(C(=O)NC3(C(=O)NCC(F)(F)F)CC3)c(Br)c2)C(F)(F)F)cc(C)c1F (centres unmarked) [Compound P333] |  |  | 50 to 100% | 50 to 100% |  |
| Cc1cc(C(/C=C/c2ccc(C(=O)NC3(C(=O)NCC(F)(F)F)CC3)c(C(F)(F)F)c2)C(F)(F)F)cc(C)c1F (centres unmarked) [Compound P335] |  |  | 50 to 100% | 50 to 100% |  |
| Cc1cc(C(/C=C/c2ccc(C(=O)NC3(C(=O)NCC(F)(F)F)CC3)c(Br)c2)C(F)(F)F)ccc1Cl (centres unmarked) [Compound P243] |  |  | 50 to 100% | 50 to 100% |  |
| O=C(NC1(C(=O)NCC(F)F)CC1)c1ccc(/C=C/C(c2cc(Cl)c(Cl)c(Cl)c2)C(F)(F)F)cc1C(F)(F)F (centres unmarked) [Compound P1015] |  |  | 50 to 100% | 50 to 100% |  |
